Data: PubChem BioAssay (NCI)
Values joined by “and” are separate entries in the source; they are usually repeats but may differ in a detail not shown here. Equal entries are not always repeated.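 These data come from cells grown in 96-well plates and exposed to compound for 48 hours at five concentrations. GI50 = concentration required for 50% inhibition of growth. TGI is the concentration that stops growth completely.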

Tests used:
Test in all cases: inhibition of tumour cell growth, NCI panel, 48 h
ACHN renal = system: ACHN renal
HL-60(TB) leukemia = system: HL-60(TB) leukemia
HOP-62 NSCLC = system: HOP-62 NSCLC
MCF7 breast = system: MCF7 breast
MDA-MB-435 = system: MDA-MB-435
OVCAR-5 ovarian = system: OVCAR-5 ovarian
SNB-75 CNS = system: SNB-75 CNS
SW-620 colon = system: SW-620 colon
T-47D breast = system: T-47D breast
TK-10 renal = system: TK-10 renal

Compound	GI50 (ACHN renal)	TGI (ACHN renal)	GI50 (HL-60(TB) leukemia)	TGI (HL-60(TB) leukemia) [µM]	GI50 (HOP-62 NSCLC)	TGI (HOP-62 NSCLC)	GI50 (MCF7 breast)	TGI (MCF7 breast)	GI50 (MDA-MB-435)	TGI (MDA-MB-435)	GI50 (OVCAR-5 ovarian)	TGI (OVCAR-5 ovarian)	GI50 (SNB-75 CNS)	TGI (SNB-75 CNS)	GI50 (SW-620 colon)	TGI (SW-620 colon)	GI50 (T-47D breast)	TGI (T-47D breast)	GI50 (TK-10 renal)	TGI (TK-10 renal)
Cc1cc(C)nc(SC2=C(Nc3cccc(Cl)c3)C(=O)N(Cc3ccccc3)C2=O)n1	> 170 µM	> 170 µM	> 170 µM	> 170	42.3 µM	> 170 µM	> 170 µM	> 170 µM	> 170 µM	> 170 µM	> 170 µM	> 170 µM	> 170 µM	> 170 µM	> 170 µM	> 170 µM	> 170 µM	> 170 µM	> 170 µM	> 170 µM
Cn1cc(C2=C(c3c4n(c5ccccc35)CCC(CN)CC4)C(=O)NC2=O)c2ccccc21 (stereo unspecified)	4.43 µM	8.67 µM	5.22 µM	11.5	3.93 µM	8.22 µM	3.48 µM	7.41 µM	3.35 µM	6.76 µM	3.51 µM	9.14 µM	1.09 µM	4.9 µM	3.87 µM	7.9 µM	4.52 µM	9.87 µM	3.31 µM	6.95 µM
COc1ccc(Nc2ccnc(NCCCNc3ccnc4cc(Cl)ccc34)n2)cc1	1.18 µM	2.42 µM	1.59 µM	4.1	1.61 µM	4.44 µM	0.599 µM	2.42 µM	0.243 µM	0.705 µM	1.16 µM	3.73 µM	0.903 µM	2.14 µM	1.07 µM	2.56 µM	1.55 µM	3.71 µM	1.54 µM	3.17 µM
O=C(O)c1cccc(CC(Br)C(=O)O)c1 (stereo unspecified)	–	> 100 µM	–	> 100	–	> 100 µM	–	> 100 µM	–	> 100 µM	–	> 100 µM	–	> 100 µM	–	> 100 µM	–	> 100 µM	–	> 100 µM
COc1cc(C(=O)n2nc(N3CCN(C)CC3)c3cc(N)ccc32)cc(OC)c1OC	4.2 µM	> 100 µM	2.16 µM	5.14	5.56 µM	> 100 µM	3.02 µM	> 100 µM	1.91 µM	5.4 µM	8.18 µM	> 100 µM	4.39 µM	> 100 µM	5.28 µM	> 100 µM	> 100 µM	> 100 µM	15.6 µM	> 100 µM
CC(C)=CCC/C(C)=C/CC/C(=C/COP(=O)(OCc1ccc([N+](=O)[O-])o1)N(C)CCCCCl)C(C)(C)C (stereo unspecified)	–	–	4.18 µM	> 100	1.83 µM	3.86 µM	2.47 µM	18.6 µM	10.1 µM	30.8 µM	16.2 µM	32.8 µM	15.6 µM	40 µM	3.07 µM	8.57 µM	16.4 µM	51.5 µM	1.72 µM	22.2 µM
COC(=O)N/N=C(\C)C(CN1CCOCC1)C(c1ccccc1)c1cc2ccccc2oc1=O (stereo unspecified)	–	> 100 µM	–	85.3	–	> 100 µM	–	> 100 µM	–	> 100 µM	–	> 100 µM	–	> 100 µM	–	> 100 µM	–	> 100 µM	–	> 100 µM
Cc1ccc2sc3c(NCCCNCCO)nc4ccccc4c3c(=O)c2c1	1.6 µM	2.98 µM	1.86 µM	3.58	1.27 µM	2.87 µM	1.61 µM	3.17 µM	1.74 µM	3.27 µM	1.62 µM	3.16 µM	1.2 µM	2.5 µM	1.62 µM	3.13 µM	1.59 µM	3.43 µM	–	–
O=C1C=CC2(C=C1)CCN=c1c(O)c3c(c(O)c12)=NC=N3	12.6 µM and > 100 µM	25.7 µM and > 100 µM	8.02 µM and 59.9 µM	> 100	16.3 µM and > 100 µM	30.3 µM and > 100 µM	11.9 µM and > 100 µM	28.7 µM and > 100 µM	–	–	22.4 µM and > 100 µM	37.4 µM and > 100 µM	17.8 µM and > 100 µM	35.2 µM and > 100 µM	10.1 µM and > 100 µM	32.2 µM and > 100 µM	–	25.2 µM and > 100 µM	22.7 µM and > 100 µM	38.4 µM and > 100 µM
COc1cc(-c2nc3ccccc3s2)ccc1OCc1nc2n(n1)S(=O)(=O)c1ccccc1N2C	> 100 µM	> 100 µM	> 100 µM	> 100	> 100 µM	> 100 µM	> 100 µM	> 100 µM	> 100 µM	> 100 µM	> 100 µM	> 100 µM	99.6 µM	> 100 µM	> 100 µM	> 100 µM	> 100 µM	> 100 µM	> 100 µM	> 100 µM
COC(=O)c1c2c(c(C)[n+]([O-])c1C)C(=O)C(NCc1ccc(F)c(F)c1)=CC2=O	2.48 µM	7.68 µM	1.86 µM	4.4	2.45 µM	7.47 µM	1.48 µM	3.36 µM	1.7 µM	3.15 µM	2.5 µM	6.59 µM	2.15 µM	7.58 µM	2.17 µM	6.89 µM	1.75 µM	4.33 µM	–	–
Cc1ncc([N+](=O)[O-])n1CCNC(=O)CCn1ccnc1[N+](=O)[O-]	–	> 100 µM	–	> 100	–	> 100 µM	–	> 100 µM	–	> 100 µM	–	> 100 µM	–	> 100 µM	–	> 100 µM	–	> 100 µM	–	> 100 µM
O=C(O)CCC1CCC(c2cc(F)ccc2F)(S(=O)(=O)c2ccc(Cl)cc2)CC1 (stereo unspecified)	56.7 µM and > 100 µM	> 100 µM	31.3 µM and > 81 µM	> 100	30.5 µM and > 100 µM	> 100 µM	29.2 µM and > 81.4 µM	> 100 µM	14.5 µM and 26.5 µM	31.2 µM and > 92.7 µM	92.2 µM and > 100 µM	> 100 µM	15.9 µM and > 72.2 µM	55.8 µM and > 100 µM	32.2 µM and > 100 µM	> 100 µM	28.6 µM and > 100 µM	> 100 µM	27.3 µM and > 100 µM	> 100 µM
